What was measured:
factor Xa = experiment: antifactor Xa activity of the active principle; type: biochemical; details: sodium salt
Method: The assay of the pentasaccharide in the receiver compartment was based on investigating its antifactor Xa activity. The assay was carried out either directly on the medium sample from the receiver compartment or after dilution, using a ROTACHROM HEPARIN 8® assay kit, with a complementary buffer for the assay instrument and the bovine antithrombin III, these various elements being supplied by the company STAGO, using a HITACHI 717 assay instrument. The calibration curve was established using a "Golden Standard" pentasaccharide solution to which an antifactor Xa activity equal to 13 units per ml was assigned.

[1] = administration of pentasaccharide sodium salt in mini pigs by iontophoresis at set current density; antifactor Xa plasma levels; type: in vivo, mini pigs of the YUCATAN strain
Method: Administration in mini pigs of pentasaccharide sodium salt by iontophoresis at a set current density.
Specialists consider mini pigs of the YUCATAN strain to be an excellent animal model for studying the administration in man of medicaments by iontophoresis. This is because the skin structure of this animal is very similar to that of human skin.
The following tests were carried out on the aforementioned mini pig with the aim of comparing the administration by iontophoresis of the sodium salt of the pentasaccharide used in Example 1 with administration by subcutaneous injection.
For these tests, pairs of adhesive electrode assemblies were formed, each pair comprising a donor electrode assembly, equipped with a reversible negative electrode (active electrode) and containing the pentasaccharide to be administered, and a passive electrode assembly formed by a positive electrode (back electrode) in contact with a second reservoir element containing an arbitrary (i.e. indifferent) electrolyte.
In the donor electrode assembly according to the invention, as well as in the reference donor assembly, the electrode 6 made of chloridized silver contained a quantity of silver chloride equivalent to 1.8 mAh/cm^2, thus allowing the electrode to sustain the quantity of electricity flowing through the electrodes over the duration of the iontophoretic treatment, namely 0.88 mAh/cm^2.
The primary electrolyte medium constituting the primary reservoir element 11 of the donor electrode assembly according to the invention, as well as the conducting, absorbent, porous material forming the reservoir element 11 of the reference electrode assembly, each consisted of a sheet of blotting paper made of cellulose fibres supplemented by polypropylene fibrils, having a surface area of 20 cm^2 and a thickness of 0.5 mm and being impregnated, to a level of 50 mg/cm^2, with an aqueous solution containing 2% by weight of pentasaccharide. Each reservoir element 11 contained in total 1 g of solution, i.e. 20 mg of pentasaccharide over 20 cm^2 of active surface (1 mg/cm^2). 20 mg of pentasaccharide were therefore employed in total per animal.
The selectively permeable membrane separating the recesses 2 and 15 of the donor electrode assembly according to the invention, that is to say separating the primary 11 and secondary 20 reservoir elements of the said electrode assembly, consisted of a 50 μm thick film of the polyether block amide PEBAX MV 1041 defined in Example 1.
In each passive electrode assembly, the positive electrode (back electrode) made of chloridized silver contained a quantity of silver chloride equivalent to 0.1 mAh/cm^2 and the reservoir element associated with this electrode consisted of a sheet of blotting paper made of cellulose fibres supplemented by polypropylene fibrils having a surface area of 20 cm^2 and a thickness of 0.5 mm and was impregnated with an aqueous solution of NaCl to contain 6% by weight of this salt.
An electric signal generator which could be connected to the electrodes of each pair of electrode assemblies, made it possible to deliver a continuous electric signal of controlled intensity between the said electrodes.
Five days before each test, the animals were catheterized in the two jugulars, as is well known for any experimentation in medicament administration, in order to make it possible to take regular blood samples intended for assaying the antifactor Xa activities and thereby to evaluate the quantities of active principle that pass through the skin to enter the circulatory system and therefore to check the effectiveness of the iontophoretic treatment.
The animals, fasted from the day before the experiments, were placed in specialized hammocks. […]

Bioavailability ([1]; Test 2a: passive, no current): 0%
plasma level, Antifactor Xa ([1]; Test 2a: passive, no current, 0 h): 0 units/ml
plasma level, Antifactor Xa ([1]; Test 2a: passive, no current, 0.25 h): 0 units/ml
plasma level, Antifactor Xa ([1]; Test 2a: passive, no current, 0.50 h): 0 units/ml
plasma level, Antifactor Xa ([1]; Test 2a: passive, no current, 1.00 h): 0 units/ml
plasma level, Antifactor Xa ([1]; Test 2a: passive, no current, 2.00 h): 0 units/ml
plasma level, Antifactor Xa ([1]; Test 2a: passive, no current, 4.00 h): 0 units/ml
plasma level, Antifactor Xa ([1]; Test 2a: passive, no current, 6.00 h): 0 units/ml
plasma level, Antifactor Xa ([1]; Test 2a: passive, no current, 8.00 h): 0 units/ml
plasma level, Antifactor Xa ([1]; Test 2a: passive, no current, 10.00 h): 0 units/ml
plasma level, Antifactor Xa ([1]; Test 2a: passive, no current, 16.00 h): 0 units/ml
plasma level, Antifactor Xa ([1]; Test 2a: passive, no current, 24.00 h): 0 units/ml
plasma level, Antifactor Xa ([1]; Test 2a: passive, no current, 30.00 h): 0 units/ml
plasma levels (antifactor Xa), invention vs reference iontophoresis ([1]; Test 2b vs Test 2c): more than three times higher
plasma level, Antifactor Xa ([1]; Test 2b: iontophoresis, PEBAX MV 1041 membrane, 20 mg, 8 hours): 1 units/ml
plasma level, Antifactor Xa ([1]; Test 2b: iontophoresis, PEBAX MV 1041 membrane, 20 mg, 8 hours, 0 h): 0 units/ml
plasma level, Antifactor Xa ([1]; Test 2b: iontophoresis, PEBAX MV 1041 membrane, 20 mg, 8 hours, 0.25 h): 0.07 units/ml
plasma level, Antifactor Xa ([1]; Test 2b: iontophoresis, PEBAX MV 1041 membrane, 20 mg, 8 hours, 0.50 h): 0.14 units/ml
plasma level, Antifactor Xa ([1]; Test 2b: iontophoresis, PEBAX MV 1041 membrane, 20 mg, 8 hours, 1.00 h): 0.36 units/ml
plasma level, Antifactor Xa ([1]; Test 2b: iontophoresis, PEBAX MV 1041 membrane, 20 mg, 8 hours, 2.00 h): 0.81 units/ml
plasma level, Antifactor Xa ([1]; Test 2b: iontophoresis, PEBAX MV 1041 membrane, 20 mg, 8 hours, 4.00 h): 1.3 units/ml
plasma level, Antifactor Xa ([1]; Test 2b: iontophoresis, PEBAX MV 1041 membrane, 20 mg, 8 hours, 6.00 h): 0.98 units/ml
plasma level, Antifactor Xa ([1]; Test 2b: iontophoresis, PEBAX MV 1041 membrane, 20 mg, 8 hours, 10.00 h): 0.79 units/ml
plasma level, Antifactor Xa ([1]; Test 2b: iontophoresis, PEBAX MV 1041 membrane, 20 mg, 8 hours, 16.00 h): 0.38 units/ml
plasma level, Antifactor Xa ([1]; Test 2b: iontophoresis, PEBAX MV 1041 membrane, 20 mg, 8 hours, 24.00 h): 0.12 units/ml
plasma level, Antifactor Xa ([1]; Test 2b: iontophoresis, PEBAX MV 1041 membrane, 20 mg, 8 hours, 30.00 h): 0.04 units/ml
plasma level, Antifactor Xa ([1]; Test 2b: iontophoresis, PEBAX MV 1041 membrane, 20 mg, 8 hours, […]): 0.61 units/ml
plasma level, Antifactor Xa ([1]; Test 2c: reference iontophoresis, no membrane, 20 mg, 8 hours): 0.35 units/ml
plasma level, Antifactor Xa ([1]; Test 2c: reference iontophoresis, no membrane, 20 mg, 8 hours, 0 h): 0 units/ml
plasma level, Antifactor Xa ([1]; Test 2c: reference iontophoresis, no membrane, 20 mg, 8 hours, 0.25 h): 0.03 units/ml
plasma level, Antifactor Xa ([1]; Test 2c: reference iontophoresis, no membrane, 20 mg, 8 hours, 0.50 h): 0.05 units/ml
plasma level, Antifactor Xa ([1]; Test 2c: reference iontophoresis, no membrane, 20 mg, 8 hours, 1.00 h): 0.09 units/ml
plasma level, Antifactor Xa ([1]; Test 2c: reference iontophoresis, no membrane, 20 mg, 8 hours, 2.00 h): 0.13 units/ml
plasma level, Antifactor Xa ([1]; Test 2c: reference iontophoresis, no membrane, 20 mg, 8 hours, 4.00 h): 0.27 units/ml
plasma level, Antifactor Xa ([1]; Test 2c: reference iontophoresis, no membrane, 20 mg, 8 hours, 6.00 h): 0.29 units/ml
plasma level, Antifactor Xa ([1]; Test 2c: reference iontophoresis, no membrane, 20 mg, 8 hours, 10.00 h): 0.34 units/ml
plasma level, Antifactor Xa ([1]; Test 2c: reference iontophoresis, no membrane, 20 mg, 8 hours, 16.00 h): 0.11 units/ml
plasma level, Antifactor Xa ([1]; Test 2c: reference iontophoresis, no membrane, 20 mg, 8 hours, 24.00 h): 0.08 units/ml
plasma level, Antifactor Xa ([1]; Test 2c: reference iontophoresis, no membrane, 20 mg, 8 hours, 30.00 h): 0.01 units/ml
plasma level, Antifactor Xa ([1]; Test 2c: reference iontophoresis, no membrane, 20 mg, 8 hours, […]): 0.14 units/ml
plasma level, Antifactor Xa ([1]; Test 2d: subcutaneous injection 0.200 mg/kg, 0 h): 0 units/ml
plasma level, Antifactor Xa ([1]; Test 2d: subcutaneous injection 0.200 mg/kg, 0.25 h): 0.11 units/ml
plasma level, Antifactor Xa ([1]; Test 2d: subcutaneous injection 0.200 mg/kg, 0.50 h): 0.13 units/ml
plasma level, Antifactor Xa ([1]; Test 2d: subcutaneous injection 0.200 mg/kg, 1.00 h): 0.17 units/ml
plasma level, Antifactor Xa ([1]; Test 2d: subcutaneous injection 0.200 mg/kg, 2.00 h): 0.22 units/ml
plasma level, Antifactor Xa ([1]; Test 2d: subcutaneous injection 0.200 mg/kg, 4.00 h): 0.26 units/ml
plasma level, Antifactor Xa ([1]; Test 2d: subcutaneous injection 0.200 mg/kg, 6.00 h): 0.24 units/ml
plasma level, Antifactor Xa ([1]; Test 2d: subcutaneous injection 0.200 mg/kg, 8.00 h): 0.15 units/ml
plasma level, Antifactor Xa ([1]; Test 2d: subcutaneous injection 0.200 mg/kg, 10.00 h): 0.12 units/ml
plasma level, Antifactor Xa ([1]; Test 2d: subcutaneous injection 0.200 mg/kg, 16.00 h): 0.06 units/ml
plasma level, Antifactor Xa ([1]; Test 2d: subcutaneous injection 0.200 mg/kg, 24.00 h): 0.00 units/ml
plasma level, Antifactor Xa ([1]; Test 2d: subcutaneous injection 0.200 mg/kg, 30.00 h): 0.00 units/ml
plasma level, Antifactor Xa ([1]; Test 2d: subcutaneous injection 0.200 mg/kg, […]): 0.06 units/ml
Compound: O=C(O)C1OC(OC2C(COS(=O)(=O)O)OC(OC3C(C(=O)O)OC(OC4C(COS(=O)(=O)O)OC(O)C(NS(=O)(=O)O)C4O)C(OS(=O)(=O)O)C3O)C(NS(=O)(=O)O)C2OS(=O)(=O)O)C(O)C(O)C1OC1OC(COS(=O)(=O)O)C(O)C(O)C1NS(=O)(=O)O (stereo not shown) [pentasaccharide]
antifactor Xa activity (factor Xa): 0.65 "Golden Standard" units per microgram
bioavailability for the in-vivo tests vs in-vitro utilization factors ([1]; Example 2 vs Example 1): higher than the utilization factors which were obtained for the in-vitro tests

Source: patent US6064908A, “Device for ionophoresis comprising at least a membrane electrode assembly, for the transcutaneous administration of active principles to a subject” (Elf Aquitaine, priority 1996, dated 2000)
